Data published in PMC10539501 (Nature Communications, 2023).
Where two headings read alike, the source gives them in different places. Non-standard residues stand in square brackets, D forms with d. Residues, ends and D or L forms follow the SMILES beside them.

Key:
[1] = PAMPA passive permeability; assay type: in vitro ADME; conditions: Pe;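 also: passive permeability across an artificial membrane in 96-well pre-coated PAMPA plates, which lack transporters and efflux systems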
Procedure: Encouraged by this, the passive permeability of the analogs was evaluated using an artificial membrane (PAMPA), which measures permeability of compounds in the absence of transporters and efflux systems[32].
96-well BD Corning® pre-coated PAMPA plates were used following the supplier’s protocol, details in Supplementary Information.

[2] = molecular target: T1, SSTR5 (Homo sapiens, UniProt P35346); assay: GloSensor assay, inhibition of forskolin-induced cAMP production; assay type: cell-based
T1 construct: expressed in transfected cells; host or cells: HEK-293T (CRL-3216)
Procedure: HEK-293T cells (CRL-3216 from ATCC, procured from NCCS, Pune) were co-transfected with human somatostatin receptor subtypes 2 & 5, plasmid cDNA, and cAMP biosensor (pGloSensorTM-22F plasmid; Promega Corp.) using PEImax. Ligand incubation was followed by the addition and incubation of forskolin (FSK) to the plate. Dose-dependent inhibition of forskolin-induced cAMP production by the peptide ligands was measured using a luminescence plate reader. An elaborate description of the assay setup has been provided in Supplementary Information.

[3] = assay type: physicochemical
[4] = in vivo; conditions: male, rat, sc
Procedure: Subsequently, we selected 13a, 13b, 13d, and 13e for assessing their plasma exposure post single dose subcutaneous injection into male Sprague Dawley rats.
(§1) All animals were housed individually in the animal facility at Anthem Biosciences Pvt. Ltd and were acclimatized for 3 days. All animals were fasted overnight before dosing, whereas access to water was provided ad libitum. Peptides were administered orally and via s.c. route and blood samples were collected at different time points through a jugular vein catheter.

[5] = HDX of amide protons by NMR in DMSO-d6:D2O (8:2)
Procedure: (§2) As hydrogen bonding and solvation of NH groups play an important role in the permeability of macrocycles, we determined the solvent accessibility of individual amide protons in 10 and 10a–10f by hydrogen-deuterium exchange (HDX) through NMR spectroscopy (Figs. 2a–c).
(§3) Spectra were recorded on a Bruker AV 500 MHz spectrometer at 25 °C.

[6] = molecular target: T2, SSTR2 (Homo sapiens, UniProt P30874); assay: GloSensor assay, inhibition of forskolin-induced cAMP production; assay type: cell-based
T2 construct: expressed in transfected cells; host or cells: HEK-293T (CRL-3216)

[7] = in vitro; conditions: both, human, plasma
Procedure: Blood was freshly drawn from three healthy adults, two male and one person of 26–28 year old. […] The plasma was separated by centrifugation. […] For checking metabolic stability, the required volume of plasma was pre-incubated at 37 °C prior to the experiment for 2 min, followed by spiking with the peptides. At different time points, plasma was aliquoted. The supernatant was separated and used for RP-HPLC quantification. Rapid Equilibrium Dialysis (RED) assay was performed to assess the plasma protein binding of the peptides following the supplier’s protocol.

[8] = test system: growth hormone (GH) release; assay: In vivo inhibition of growth hormone release (sandwich ELISA); design: species or system rats
Procedure: In vivo inhibition of GH. Finally, we estimated the in vivo efficacy of 13 and the thioamidated analogs 13b, 13d, and 13e in suppressing the release of growth hormone (GH) post subcutaneous injection at 250 μg/kg dosage (Fig. 7e). 13a was also included as a negative control to assess its effect on GH release. The rats were bled from their orbital sinus, and the plasma GH levels were evaluated through sandwich ELISA. […] This correlates well with the high plasma concentration of 13 at the initial time points and a rapid drop within 2 h of s.c. administration (Fig. 7c). […] In contrast, the inhibitory effect lasts longer in 13b, 13d, and 13e showing a significant reduction in plasma GH levels within 24–48 h (Fig. 7h). […] The rapid drop in plasma concentration of 13 is responsible for its least in vivo efficacy.
Animal housing and acclimatization were done at Central Animal Facility, IISc Bangalore, as mentioned in the previous section, following protocols from the IEAC and CPCSEA. […] Samples were processed as discussed in Supplementary Information, and sandwich ELISA was performed to measure the growth hormone level in blood plasma. For acute toxicity, after peptide injection (s.c.), blood samples were collected on the 14th day for liver and kidney function tests.

[9] = in vitro; conditions: pig, simulated intestinal fluid
[10] = physchem; conditions: pH 7.4
[11] = in vitro; conditions: both, human, plasma; remark: listed apart in the source
[12] = in vivo; conditions: male, Wistar, rat
Procedure: as §1

[13] = HDX of amide protons by NMR in CDCl3:CD3OD (8:2)
Procedure: as §2, §3

[14] = in vitro; conditions: human, microsomes
Procedure: (§4) A stability assessment of the peptides was done in simulated gastric (SGF) and intestinal (SIF) fluids and human liver microsomes. The degradation kinetics of the aliquoted samples at desired time points were analyzed through RP-HPLC.

[15] = rat, in vivo
Procedure: as §1

[16] = Retention in hydrophobic C18 column by HPLC; conditions: Supplementary Fig 3d, logD7.4 vs tR
[17] = test system: human liver microsomes
Procedure: as §4

[18] = molecular target: T3, pepsin (Sus scrofa, UniProt P00791); assay: in vitro; conditions: simulated gastric fluid, pH 1.2
Procedure: as §4

[19] = molecular target: T3, pepsin; conditions: pH 1.2
Procedure: as §4

[20] = assay type: physicochemical; remark: listed apart in the source
[21] = blood plasma, cited from earlier work
Source text: Next, we sought to assess the in vivo efficacy of the thioamidated somatostatin analogs post s.c. administration. Somatostatin, first known to inhibit the release of growth hormone, induces its biological effects by interacting with five of its G-protein-coupled receptor subtypes SSTR1-SSTR5[50]. Out of which, the SSTR2 and SSTR5 have gained significant attention due to their role in mediating the inhibition of growth hormone and antiproliferative effects of somatostatin on tumor growth. […]

[22] = 20% CD3OD in CDCl3, % remaining after 24 hours

T3 sequence (P00791 60-385): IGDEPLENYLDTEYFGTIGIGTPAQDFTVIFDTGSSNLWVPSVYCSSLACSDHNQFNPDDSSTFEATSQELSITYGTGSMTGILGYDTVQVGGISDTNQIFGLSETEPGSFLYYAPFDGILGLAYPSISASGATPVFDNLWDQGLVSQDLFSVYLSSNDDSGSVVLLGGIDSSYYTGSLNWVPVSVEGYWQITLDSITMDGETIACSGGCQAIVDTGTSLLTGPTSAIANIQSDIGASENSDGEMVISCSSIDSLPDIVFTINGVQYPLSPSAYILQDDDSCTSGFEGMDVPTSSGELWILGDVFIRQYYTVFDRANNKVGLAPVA
T2 sequence (P30874 whole entry): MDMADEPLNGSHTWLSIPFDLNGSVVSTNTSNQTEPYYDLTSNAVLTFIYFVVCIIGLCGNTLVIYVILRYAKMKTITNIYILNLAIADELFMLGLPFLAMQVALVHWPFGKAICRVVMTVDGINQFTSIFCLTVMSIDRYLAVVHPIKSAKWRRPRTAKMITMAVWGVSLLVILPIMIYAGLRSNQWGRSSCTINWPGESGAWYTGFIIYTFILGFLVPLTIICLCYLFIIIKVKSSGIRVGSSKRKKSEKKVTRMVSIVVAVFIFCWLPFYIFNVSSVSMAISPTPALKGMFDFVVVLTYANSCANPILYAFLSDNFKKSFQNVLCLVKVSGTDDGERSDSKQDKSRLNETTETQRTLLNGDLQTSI
T1 sequence (P35346 whole entry): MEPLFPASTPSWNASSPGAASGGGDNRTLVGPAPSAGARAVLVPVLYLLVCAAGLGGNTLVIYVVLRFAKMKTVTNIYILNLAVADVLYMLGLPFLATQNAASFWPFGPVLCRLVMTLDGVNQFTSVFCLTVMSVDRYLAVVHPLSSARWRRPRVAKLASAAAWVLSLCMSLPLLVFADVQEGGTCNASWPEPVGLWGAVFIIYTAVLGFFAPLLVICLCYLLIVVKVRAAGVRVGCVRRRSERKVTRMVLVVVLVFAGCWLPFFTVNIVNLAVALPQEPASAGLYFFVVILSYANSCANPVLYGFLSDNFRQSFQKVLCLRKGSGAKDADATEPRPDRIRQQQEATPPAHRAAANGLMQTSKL

## C[C@@H](O)[C@@H]1NC(=O)[C@H](CCCCN)NC(=O)[C@@H](Cc2c[nH]c3ccccc23)NC(=O)[C@H](Cc2ccccc2)NC(=O)[C@@H]2CCCN2C(=O)[C@H](Cc2ccccc2)NC1=O [compound 13, cyclo(-D-Trp^1-Lys-Thr-Phe-Pro-Phe^6-)] (cyclo(PF[dW]KTF))
[1]
  Papp: 13.4 nm/s
[2]
  IC50: 0.105 ± 0.0242 µM
[3]
  logD heptane ethylene glycol: -1.43
[4]; Sprague Dawley
  level at 0.5 h: 0.195 µg/mL
  level at 1 h: 0.128 µg/mL
[4]; Sprague Dawley, 250 ug/kg
  level at 2 h: 0.008 µg/mL
[4]; Sprague-Dawley
  half-life: 0.3 ± 0.05 h
[5]; HDX experiment by NMR, solvent not stated at the place (Supplementary Fig. 18)
  t1/2 for all HNs (HDX): < 5 min
[5]; Supplementary Fig 18b, HDX of amide proton of D-Trp1, solvent not given
  Half-lives (min), amide proton D-Trp1: >5 min
[5]; Supplementary Fig 18b, HDX of amide proton of Lys2, solvent not given
  Half-lives (min), amide proton Lys2: >5 min
[5]; Supplementary Fig 18b, HDX of amide proton of Phe4, solvent not given
  Half-lives (min), amide proton Phe4: >5 min
[5]; Supplementary Fig 18b, HDX of amide proton of Phe6, solvent not given
  Half-lives (min), amide proton Phe6: >5 min
[5]; Supplementary Fig 18b, HDX of amide proton of Thr3, solvent not given
  Half-lives (min), amide proton Thr3: >5 min
[6]
  IC50: 0.0166 ± 0.0042 µM
[7]
  fraction unbound: 0.24
other
  t1/2 in human blood plasma: 15 ± 0.9 h
[8]; growth hormone AUC 0-24 h, mean of n = 3
  AUC 0_24: 504 ng·h/mL
[8]; growth hormone AUC 0-48 h, mean of n = 3
  AUC 0_48: 1371 ng·h/mL
[8]; growth hormone AUC 24-48 h, mean of n = 3
  AUC 24_48: 817 ng·h/mL
[8]; rats, 250 μg/kg s.c., plasma GH by sandwich ELISA over 48 h
  inhibition of unstimulated GH release: significant inhibition
[9]
  half-life: 1.8 h
[10]
  logD: -1.23
[11]
  half-life: 14 h

## CC(C)C[C@@H]1NC(=O)[C@H](Cc2ccc(O)cc2)NC(=O)[C@H]2CCCN2C(=O)[C@H](CC(C)C)NC(=O)[C@H](CC(C)C)NC(=O)[C@@H](CC(C)C)NC1=O [compound 10, cyclo(-D-Leu^1-Leu-Leu-D-Pro-Tyr-Leu^6-)] (cyclo(LL[dP]YL[dL]))
[3]
  logD heptane ethylene glycol: 0.46
[5]; HDX by NMR, 20% D2O in DMSO-d6
  Half-life of D-Leu1 amide proton (HDX): 0.25 h
  Half-life of Leu2 amide proton (HDX): 1.52 h
  Half-life of Leu3 amide proton (HDX): 3.28 h
  Half-life of Leu6 amide proton (HDX): 7.83 h
  Half-life of Tyr5 amide proton (HDX): 0.817 h
[12]; iv
  AUC(0-t): 0.548 µg·h/mL
  Cmax: 1.05 µg/mL
  MRT: 1.6 h
  Vd: 4.1 L/kg
  clearance: 1.7 L/h/kg
[12]; po, 10 mg/kg
  AUC(0-t): 0.0009 µg·h/mL
  Cmax: 0.0035 µg/mL
  MRT: 0.2 h
[13]; 20% CD3OD in CDCl3
  Half-life of D-Leu1 amide proton (HDX): 7.25 h
  Half-life of Leu2 amide proton (HDX): 2 min
  Half-life of Leu3 amide proton (HDX): > 24 h
  Half-life of Leu6 amide proton (HDX): > 24 h
  Half-life of Tyr5 amide proton (HDX): 1.75 h
[13]; [22]
  % intact NH, Leu3: 72%
  % intact NH, Leu6: 90%
[14]
  remaining at 5 min: 55%
  remaining at 10 min: 40%
  remaining at 20 min: 33%
  remaining at 0.5 h: 29%
  remaining at 0.75 h: 22%
  remaining at 1 h: 14%
[7]
  fraction unbound: 0.51
[15]
  %F: 0%
[15]; po, 10 mg/kg
  time over which the peptide is detectable in plasma: ≤ 1 h
other
  t1/2 in human blood plasma: 8 h
[16]
  tR: 9.3 min
[17]
  Half lives: 6.7
[17]; human
  Intrinsic clearance (CLint) Avg: 225 µL/min/mg
[9]
  half-life: 0.267 h
  remaining at 10 min: 57.1%
  remaining at 0.5 h: 39%
  remaining at 1 h: 30.7%
  remaining at 2 h: 13.4%
  remaining at 4 h: 12%
  remaining at 8 h: 7.3%
  remaining at 12 h: 5.5%
  remaining at 24 h: 3%
[18]
  half-life: 0.2 h
  remaining at 5 min: 67%
  remaining at 10 min: 54%
  remaining at 20 min: 40%
  remaining at 0.5 h: 34%
  remaining at 1 h: 22%
  remaining at 2 h: 16%
  remaining at 4 h: 10%
  remaining at 8 h: 6%
  remaining at 12 h: 2%
  remaining at 24 h: 0%
[19]
  Half lives (SGF) set1: 10 min
[20]
  % solubility: 97%
[11]
  half-life: 8 h
  remaining at 1 h: 86%
  remaining at 3 h: 80%
  remaining at 5 h: 67%
  remaining at 7 h: 59%
  remaining at 9 h: 43%
  remaining at 12 h: 37%
  remaining at 24 h: 24%
  remaining at 36 h: 19%
  remaining at 48 h: 13%
  remaining at 60 h: 4%
  remaining at 72 h: 4%

## C[C@H](N)C(=O)NCC(=O)N[C@H]1CSSC[C@@H](C(=O)O)NC(=O)[C@H](CO)NC(=O)[C@H]([C@@H](C)O)NC(=O)[C@H](Cc2ccccc2)NC(=O)[C@H]([C@@H](C)O)NC(=O)[C@H](CCCCN)NC(=O)[C@H](Cc2c[nH]c3ccccc23)NC(=O)[C@H](Cc2ccccc2)NC(=O)[C@H](Cc2ccccc2)NC(=O)[C@H](CC(N)=O)NC(=O)[C@H](CCCCN)NC1=O [SRIF-14]
[21]
  plasma half-life: 3 min
[21]; listed as native somatostatin
  plasma half-life: ~ 3 min
